For data set [1], the system named is BP-17 phytase. Kind of data set: Mechanism of inhibition: phytase activity with titrated substrate and titrated excipient (PNPP assay). The following applies: ambient assay conditions (25° C.). It counts as biochemical, Buttiauxella sp. As to the method: Kinetic analysis was performed to determine the mechanism of stabilization of both the sodium phosphate and sodium citrate with respect to the phytase enzyme by measuring the activity of phytase in the presence of both titrated substrate and titrated excipient concentrations.
The BP-17 phytase UFC was diluted 7,000-fold in 0.1 M acetate buffer pH 5.5.
The substrate stock solution (400 mM) was prepared by dissolving 0.923 grams of 4-nitrophenyl phosphate di (tris) salt into 5 mL of 0.25 M acetate buffer pH 5.5. A volume of 200 μL of the substrate stock solution was added to columns 1 and 7 of a 96-well plate. A volume of 100 μL of 0.25 M acetate Buffer pH 5.5 was added to columns 2-6 and 8-12 of the same 96-well plate. Serial dilutions were performed by transferring 100 μL from column 1 into column 2 of the 96-well plate, and then repeating this dilution pattern across the plate to column 6 so that the following substrate concentrations were made: 400, 200, 100, 50, 25, and 12.5 mM. The same serial dilutions were performed across the second half of the plate from columns 7 to 12.
A 20% (or 1.41 M) sodium phosphate solution was prepared by dissolving 5 grams of sodium phosphate dibasic anhydrous into 25 mL of 0.1 M acetate buffer pH 5.5. […]

Data set [2] relates to BP-17 phytase. In words: Thermal inactivation of BP-17 phytase at 70° C. in the presence of stabilizing salts, residual activity by colorimetric assay. It counts as biochemical, Buttiauxella sp. To be noted: for phytase activity state: 70° C. As to the method: An experiment was performed to determine whether the addition of excipients during thermal stress conditions allows the phytase enzyme to retain its activity. A temperature was selected at which the phytase enzyme is completely inactivated in the absence of excipient after 30-minutes incubation. Excipient solutions were prepared at their highest solubility. then titrated from highest to lowest concentrations prior to their addition to the phytase UFC. The enzyme/excipient combinations were then exposed to a temperature of 70° C., and the residual activity was measured after 2, 5, 10, 20, 30, and 60-minutes incubation via a colorimetric activity assay
A 20% (or 1.41 M) sodium phosphate solution was prepared by dissolving 5 grams of sodium phosphate dibasic anhydrous into 25 mL of water. The pH was adjusted to 5.5 using concentrated phosphoric acid. A 25% (or 0.85 M) sodium citrate solution was prepared by dissolving 5 grams of sodium citrate dihydrate into 20 mL of water. The pH was adjusted to 5.5 using 80% citric acid.
A volume of 80 μL of the 20% sodium phosphate stock solution was added to the first well of 8 different 12-well PCR strips. A volume of 40 μL of −Q water was added to wells 2, 3. 4, 5, and 6 of each PCR strip. The sodium phosphate stock solution was serially diluted 2-fold sequentially from well 1 to well 6. A volume of 80 μL of the 25% sodium citrate stock solution was added to well 7 of each PCR strip. A volume of 40 μL of water was added to wells 8, 9, 10, 11, and 12 of each PCR strip. The sodium citrate stock solution was serially diluted 2-fold sequentially from well 7 to well 11, leaving well 12 to contain water only. The BP-17 phytase UFC was diluted 50-fold in autoclaved water. A volume of 40 μL of the diluted UFC was added to each well of the 8 different 12-well PCR strips containing the diluted excipients.
The temperature cycler was programmed to a temperature of 70° C. One PCR strip was sealed and placed immediately on ice for the time zero measurement. The remaining PCR strips were sealed, placed inside the PCR, incubated for varying increments of time (0.5, 2, 5, 10, 20, 30, and 60 minutes), then removed from the PCR and placed immediately on ice. After each of the PCR strips had been collected on ice, they were placed on a 96-well PCR tube rack and centrifuged for 2 minutes at 3500 rpm.
As some precipitation occurred during thermal inactivation, the PCR strips were subjected to centrifugation and the supernatant was removed and diluted with assay buffer (0.1 M acetate Buffer pH 5.5+0.05% w/v Tween 20) to a final activity of 0.012 FTU/mL in a non-binding (Corning 3641) 96-well plate. A volume of 40 μL was transferred from the enzyme dilution plate into a separate reaction plate (Costar 9017, medium binding). A volume of 40 μL of substrate (150 μM sodium phytate) was then added to each of the wells of the reaction plate. The reaction plate was sealed and incubated for 10 minutes at 25° C. and 900 rpm. A volume of 170 μL of Pi Blue stop/color reagent (POPB-500 by BioAssay Systems US) was then added to each well of the reaction plate to stop the reaction. The plate was sealed and incubated for 30 minutes at 25° C. and 400 rpm for color development, then read in a spectrophotometer at 620 nm.

The subject of data set [3] is BP-17 phytase. Kind of data set: Phytase melting temperature (Tm) in the presence of excipients, differential scanning fluorimetry (nanoDSF). It counts as physicochemical, Buttiauxella sp. As for the experimental part:
An experiment was performed to determine whether the addition of different excipients during thermal exposure increases the melting temperature of the phytase enzyme in the liquid state. Excipient solutions were prepared at their highest solubility, then titrated from highest to lowest concentrations prior to their addition to the phytase UFC. The enzyme/excipient combinations were then exposed to a temperature profile of 21-95° C., and the melting temperatures were measured via differential scanning fluorimetry. The concentration of phytase in the UFC was measured at 123.9 g/L via HPLC. […] A 20% phytic acid solution was prepared by dissolving 1 gram of phytic acid into 5 mL of 0.1 M acetate buffer pH 5.5. The pH was adjusted from 4.2 to 5.47 using 20% NaOH, and then the solution was filtered using a 0.45 μM syringeless filter. A 25% sodium sulfate anhydrous solution was prepared by dissolving 5 grams into 20 mL of water. The pH was adjusted to 5.6 using sulfuric acid, and then the solution was filtered using a 0.45 μM syringeless filter. A 20% sodium polyphosphate solution was prepared by dissolving 5 grams into 25 mL of water. The pH was adjusted to 5.6 using concentrated phosphoric acid, and then the solution was filtered using a […] syringeless filter. […] The pH was adjusted to 5.6 using 80% citric acid, and then the solution was filtered using a 0.45 μM syringeless filter. A 20% sodium phosphate dibasic solution was prepared by dissolving 2 grams into 10 mL of water. The pH was adjusted to 5.6 using concentrated phosphoric acid, and then the solution was filtered using a 0.45 μM syringeless filter. A volume of 100 μL of an excipient stock solution was added to well A in column 1 of a 96-well plate. A volume of 50 μL of water was added to each well B-H in column 1 of the same 96-well plate. The excipient stock solution was titrated 2-fold down the column of the plate by transferring 50 μL into each subsequent well. A volume of 80 μL of the pH adjusted UFC was added to each of the wells in column 1 of a new 96-well plate. A volume of 20 μL was transferred from each well of the titrated excipient directly into the corresponding well containing the UFC. The 96-well plate containing the enzyme and excipient combinations was mixed on a plate shaker for 5 seconds. Standard capillaries for the nanoDSF were filled by dipping a capillary in each well of the 96-well plate, and then loading onto the Nanotemper instrument. The Nanotemper instrument was programmed to run at 10% excitation power and 21-95° C. with a 1° C./minute ramp. The Nanotemper instrument monitors the shift of intrinsic tryptophan fluorescence of proteins upon unfolding by measuring wavelengths at 330 and 350 nm.

Counter-ions that a name gives are not always drawn.

Consider `O.O.O=C([O-])CC(O)(CC(=O)[O-])C(=O)[O-].[Na+].[Na+].[Na+]` [sodium citrate, Sodium citrate dihydrate, reference compound], for which the “excipient concentration at which phytase activity loss levels out” value in the data set on BP-17 phytase [1] (increasing phytic acid substrate, FIG. 9) is ≥ 26 mM. Also, the phytase activity retained result is reported as “approximately 90%” with BP-17 phytase [2] (425 mM sodium citrate, 60-minutes incubation at 70° C., FIG. 7) and ≤ 50% with BP-17 phytase [2] (half of 425 mM sodium citrate, 60-minutes incubation at 70° C., FIG. 7). Further, the phytase activity state result with BP-17 phytase [2] (sodium citrate below half of 425 mM, FIG. 7) is given as “inactivated”.

In the case of `O=P(O)(O)O[C@H]1[C@H](OP(=O)(O)O)[C@@H](OP(=O)(O)O)[C@H](OP(=O)(O)O)[C@@H](OP(=O)(O)O)[C@H]1OP(=O)(O)O` [sodium phytate, Phytic acid sodium salt hydrate, reference compound], in the data set on BP-17 phytase [3] (molar ratio of 14:1 sodium phytate to phytase, phytase UFC, liquid state, FIG. 1), the “increase in Tm of phytase” value was “approximately 2.7 °C”.

`O=P([O-])([O-])O.[Na+].[Na+]` [sodium phosphate, Sodium phosphate, dibasic, anhydrous]: the “phytase activity in presence of excipient and substrate” value with BP-17 phytase [1] (150 mM sodium phosphate and 100 mM phytic acid substrate, FIG. 8) is “very little activity”. In the data set with BP-17 phytase [2] (352 mM sodium phosphate, 60-minutes incubation at 70° C., FIG. 6), the “relative residual phytase activity retained” value is given as “approximately 90%”. The phytase activity retained result in the data set on BP-17 phytase [2] (half of 352 mM sodium phosphate, 60-minutes incubation at 70° C., FIG. 6) is reported as “approximately 60%”. Also, the phytase activity state result in the data set on BP-17 phytase [2] (sodium phosphate below half of 352 mM, FIG. 6) was “nearly inactivated”. Moreover, the “stabilizing effect on Tm compared with other excipients” value in the data set on BP-17 phytase [3] (equivalent molar ratios to the phytase, normalized for anion equivalents, FIG. 4) is “greater than that of sodium phytate, sodium polyphosphate, and sodium sulfate”. Further, the “increase in melting temperature of phytase” value in the data set with BP-17 phytase [3] (molar ratio of 130:1 sodium phosphate to phytase, phytase UFC, liquid state, FIGS. 2 and 3) was “approximately 5.5 °C”. In addition, the “increase in melting temperature compared with citrate” value in the data set with BP-17 phytase [3] (normalized for charge equivalents, FIG. 5) is “much higher”.
